Measurements as given in patent US8999940B2 (Ipsen Pharma S.A.S., priority 2008, dated 2015).
pKi: −log10 of the molar value. Where no end group is shown, it is not given here. [ ]: non-standard residue; d: D form. The star is where a group is joined. Tyr(3-Cl) = N[C@@H](Cc1ccc(O)c(Cl)c1)C(=O)O; Phe(4-CN) = N#Cc1ccc(C[C@H](N)C(=O)O)cc1; Phe(4-Me) = Cc1ccc(C[C@H](N)C(=O)O)cc1; Desaminotyrosyl = O=C(CCc1ccc(O)cc1)*; Hyp = O=C(O)[C@@H]1C[C@@H](O)CN1; Pip = O=C(O)[C@@H]1CCCCN1; Ac6c = NC1(C(=O)O)CCCCC1; Nle = CCCC[C@H](N)C(=O)O; Ac5c = NC1(C(=O)O)CCCC1; Aib = CC(C)(N)C(=O)O

Tests used:
[1] = system: insulin secretion; test: Determination of in vivo insulin secretion in normal rats; conditions: fasted male Sprague Dawley rats, compound iv with glucose (1 g/kg), plasma insulin up to 20 minutes post-glucose
Description: D. Determination of in vivo Insulin Secretion in Normal Rats Male Sprague Dawley rats with a body weight of approximately 275-300 g were used as experimental subjects. The day prior to the treatment, right atrial cannulae were implanted via the jugular vein under chlorohydrate. Each cannula was filled with 100 u/ml heparin saline and tied. […] The day of the experiment, aliquots of compound were thawed, brought to room temperature and vortexed thoroughly. […] At time 0, a 500 μl blood sample was withdrawn through the cannula. Next, either the vehicle or the appropriate dose of the compound was injected into the cannula and pushed in with the glucose (1 g/kg) or vehicle solution. Finally, 500 μl of volume of heparinized saline (10 u/ml) was used to push in the remaining glucose through the cannula. […] The plasma was collected from the blood samples by centrifugation, and stored at −20° C. until assay for insulin content.

[2] = biological target: T1, human recombinant GIP receptor (Homo sapiens, UniProt P48546); test: In vitro hGIP receptor binding assay
T1 construct: expressed in transfected cells; host or cells: CHO-K1 clonal cells (membrane preparation)
T1 sequence (P48546 22-466): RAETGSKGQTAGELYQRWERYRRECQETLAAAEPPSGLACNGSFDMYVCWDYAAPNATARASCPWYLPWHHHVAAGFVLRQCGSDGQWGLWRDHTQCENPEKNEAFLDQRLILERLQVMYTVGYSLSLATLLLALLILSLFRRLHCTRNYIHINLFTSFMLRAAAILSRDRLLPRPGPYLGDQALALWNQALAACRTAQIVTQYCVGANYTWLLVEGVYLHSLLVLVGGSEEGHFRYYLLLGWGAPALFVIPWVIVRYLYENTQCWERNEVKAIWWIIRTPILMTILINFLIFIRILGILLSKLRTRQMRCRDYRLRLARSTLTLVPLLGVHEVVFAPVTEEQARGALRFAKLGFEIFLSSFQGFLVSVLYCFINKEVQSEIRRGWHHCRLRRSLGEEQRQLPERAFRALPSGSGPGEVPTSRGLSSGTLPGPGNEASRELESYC
Description: A. In Vitro hGIP Receptor Binding Assay […] The incubations were terminated by rapid filtration through GF/C filters (pre-soaked in 0.5% polyethylenimine) using a Brandel filtration manifold. Each tube and filter were then washed three times with 5-ml aliquots of ice-cold buffer.

[3] = Rat plasma half-life assay; format: in vitro ADME; conditions: 37° C., LC-MS, read-out: Rat Plasma T½ (converted)
[4] = Human plasma half-life assay; format: in vitro ADME; conditions: 37° C., LC-MS, read-out: Human Plasma T½ (converted)

| Compound | AUC (total insulin secretion) [1] | pKi [2] | half-life at 0.1 mg/ml [3] | half-life at 0.1 mg/ml [4] |
| --- | --- | --- | --- | --- |
| CC[C@H](C)[C@H](NC(=O)[C@H](CCCCN)NC(=O)[C@H](CC(=O)O)NC(=O)[C@H](CCSC)NC(=O)[C@H](C)NC(=O)[C@@H](NC(=O)C1(NC(=O)[C@H](Cc2ccc(O)cc2)NC(=O)[C@H](CC(=O)O)NC(=O)[C@H](CO)NC(=O)[C@@H](NC(=O)[C@H](Cc2ccccc2)NC(=O)[C@@H](NC(=O)CNC(=O)[C@H](CCC(=O)O)NC(=O)C(C)(C)NC(=O)[C@@H](N)Cc2ccc(O)c(OC)c2)[C@@H](C)O)[C@@H](C)CC)CCCC1)[C@@H](C)CC)C(=O)N[C@@H](Cc1c[nH]cn1)C(=O)N[C@@H](CCC(N)=O)C(=O)N[C@@H](CCC(N)=O)C(=O)N[C@@H](CC(=O)O)C(=O)N[C@@H](Cc1ccccc1)C(=O)N[C@H](C(=O)N[C@@H](CC(N)=O)C(=O)N[C@@H](Cc1c[nH]c2ccccc12)C(=O)N[C@@H](CC(C)C)C(=O)N[C@@H](CC(C)C)C(=O)N[C@@H](C)C(=O)N[C@@H](CCC(N)=O)C(=O)N[C@@H](CCCCN)C(=O)NCC(=O)N[C@@H](CCCCN)C(=O)N[C@@H](CCCCN)C(=O)N[C@@H](CC(N)=O)C(=O)N[C@@H](CC(=O)O)C(=O)N[C@@H](Cc1c[nH]c2ccccc12)C(=O)N[C@@H](CCCCN)C(=O)N[C@@H](Cc1c[nH]cn1)C(=O)N[C@@H](CC(N)=O)C(=O)N[C@H](C(=O)NC1(C(=O)N[C@@H](CCC(N)=O)C(=O)O)CCCC1)[C@@H](C)CC)C(C)C [Example 28, (3MeO-Tyr^1, Aib^2, A5c^11, 41)hGIP(1-42)-OH] | 92.88 | 8.91 | 10 h | > 57 h |
| CC[C@H](C)[C@H](NC(=O)[C@H](CCCCN)NC(=O)[C@H](CC(=O)O)NC(=O)[C@H](CCSC)NC(=O)[C@H](C)NC(=O)[C@@H](NC(=O)C1(NC(=O)[C@H](Cc2ccc(O)cc2)NC(=O)[C@H](CC(=O)O)NC(=O)[C@H](CO)NC(=O)[C@@H](NC(=O)[C@H](Cc2ccccc2)NC(=O)[C@@H](NC(=O)CNC(=O)[C@H](CCC(=O)O)NC(=O)C(C)(C)NC(=O)[C@@H](N)CCc2ccc(O)cc2)[C@@H](C)O)[C@@H](C)CC)CCCC1)[C@@H](C)CC)C(=O)N[C@@H](Cc1c[nH]cn1)C(=O)N[C@@H](CCC(N)=O)C(=O)N[C@@H](CCC(N)=O)C(=O)N[C@@H](CC(=O)O)C(=O)N[C@@H](Cc1ccccc1)C(=O)N[C@H](C(=O)N[C@@H](CC(N)=O)C(=O)N[C@@H](Cc1c[nH]c2ccccc12)C(=O)N[C@@H](CC(C)C)C(=O)N[C@@H](CC(C)C)C(=O)N[C@@H](C)C(=O)N[C@@H](CCC(N)=O)C(=O)N[C@@H](CCCCN)C(=O)NCC(=O)N[C@@H](CCCCN)C(=O)N[C@@H](CCCCN)C(=O)N[C@@H](CC(N)=O)C(=O)N[C@@H](CC(=O)O)C(=O)N[C@@H](Cc1c[nH]c2ccccc12)C(=O)N[C@@H](CCCCN)C(=O)N[C@@H](Cc1c[nH]cn1)C(=O)N[C@@H](CC(N)=O)C(=O)N[C@H](C(=O)N[C@H](C(=O)N[C@@H](CCC(N)=O)C(=O)N[C@@H](Cc1c[nH]cn1)C(=O)O)[C@@H](C)O)[C@@H](C)CC)C(C)C [Example 80, (hTyr^1, Aib^2, A5c^11, His^43)hGIP(1-43)-OH] |  | 8.03 | 18.4 h | 22.6 h |
| Desaminotyrosyl-A[Hyp]GTF[Ac6c]SDYSIAMDKIHQQDFVNWLLAQKGKKNDWKHNITQ [Example 7, (4Hppa^1, 4Hyp^3, A6c^7)hGIP(1-42)-OH] |  | 6.60 | 6.8 h | 38.5 h |
| Desaminotyrosyl-A[Pip]GTF[Ac6c]SDYSIAMDKIHQQDFVNWLLAQKGKKNDWKHNITQ [Example 8, (4Hppa^1, hPro^3, A6c^7)hGIP(1-42)-OH] |  | 6.15 | 12.9 h | > 53 h |
| H-[Tyr(3-Cl)][Aib]EGTFISDY[Ac5c]IA[Nle]DKIHQQDFVNWLLAQKGKKNDWKHNITQ-OH [Example 14, (3Cl-Tyr^1, Aib^2, A5c^11, Nle^14)hGIP(1-42)-OH] | 189.54 | 9.38 | 27.4 h | 52.1 h |
| [Phe(4-CN)][Aib]EGTFISDY[Ac5c]IAMDKIHQQDFVNWLLAQKGKKNDWKHNITQH-OH [Example 79, (4CN-Phe^1, Aib^2, A5c^11, His^43)hGIP(1-43)-OH] |  | 8.29 | 21.7 h | 26.3 h |
| [Phe(4-Me)][Aib]EGTFISDY[Ac5c]IAMDKIHQQDFVNWLLAQKGKKNDWKHNITQH-OH [Example 78, (4Me-Phe^1, Aib^2, A5c^11, His^43)hGIP(1-43)-OH] |  | 8.04 | > 52 h | 14.9 h |
